From US7495027B2, “3-aryl-4-hydroxyfuranone compounds and the human and animal health use thereof” (Wyeth, priority 2003, dated 2009) come the findings set out here.

Values after ≈ are worked out from the molar mass of the structure shown.

The first experiment deals with Streptococci. As to the kind of experiment: Minimum inhibitory concentration, microdilution broth method, streptococci. It is filed as cell-based. The following applies: Mueller-Hinton broth with 5% horse blood, 18-22 hours at 35° C. Put shortly: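 Following NCCLS standard M7-A5, MICs were determined by microdilution in Mueller-Hinton broth, with 5% horse blood added for streptococci.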
`Cc1cc(C=C2OC(=O)C(c3cc(Cl)cc(Cl)c3)=C2O)ccc1-c1ccccc1Cl` [Example 31]: the “MIC S. pneumo GC 1894” value is 0.25 µg/mL (≈ 0.546 µM).

Regarding `Cc1cc(/C=C2\OC(=O)C(c3cc(Cl)cc(Cl)c3)=C2O)ccc1-c1ccccc1OS(C)(=O)=O` [Example 39], the “MIC S. pneumo GC 1894” value was determined as 1 µg/mL (≈ 1.93 µM).

With `CCOC(=O)c1cccc(C2=C(O)C(=Cc3cccc4ccccc34)OC2=O)c1` [Example 75], the “MIC S. pneumo GC 1894” value is 32 µg/mL (≈ 82.8 µM).

As to `O=C1O/C(=C\c2cccc3ccccc23)C(O)=C1c1cccc(C=NO)c1` [Example 77], the “MIC S. pneumo GC 1894” value worked out at 64 µg/mL (≈ 179 µM).

As for `CN(C)c1ccc(C=C2OC(=O)C(c3cc(Cl)cc(Cl)c3)=C2O)c2ccccc12` [Example 80], the “MIC S. pneumo GC 1894” value was 1 µg/mL (≈ 2.35 µM).

Still in this experiment, the particulars now being: S. pneumo GC 1894; Mueller-Hinton broth with 5% horse blood, 18-22 hours at 35° C.
The term MIC denotes the least concentration at which growth counts as inhibited. A low value points to a more susceptible organism. Take `COc1ccccc1-c1ccc(/C=C2\OC(=O)C(c3ccc(Cl)c(Cl)c3)=C2O)cc1OC` [Example 20]: the lowest concentration to inhibit growth (MIC) was 0.5 µg/mL (≈ 1.07 µM).

Consider `COc1cc(/C=C2\OC(=O)C(c3cc(Cl)cc(Cl)c3)=C2O)ccc1-c1ccccc1Cl` [Example 21], for which 0.5 µg/mL (≈ 1.06 µM) was the least that counted as inhibitory (MIC).

For the molecule `COc1cc(/C=C2\OC(=O)C(c3cccc(Cl)c3)=C2O)ccc1-c1ccccc1C` [Example 22], 1 µg/mL (≈ 2.39 µM) was the least that counted as inhibitory (MIC).

In turn, `COc1ccccc1-c1ccc(/C=C2\OC(=O)C(c3cccc(Cl)c3)=C2O)cc1C` [Example 23] showed an MIC of 1 µg/mL (≈ 2.39 µM).

`COc1ccccc1-c1ccc(/C=C2\OC(=O)C(c3cc(Cl)cc(Cl)c3)=C2O)cc1C` [Example 24] yielded an MIC of 0.5 µg/mL (≈ 1.1 µM).

`COc1cc(/C=C2\OC(=O)C(c3cc(Cl)cc(Cl)c3)=C2O)ccc1-c1ccccc1C` [Example 25] showed an MIC of 0.25 µg/mL (≈ 0.551 µM).

In the case of `Cc1cc(/C=C2\OC(=O)C(c3cccc(Cl)c3)=C2O)ccc1-c1ccccc1C(F)(F)F` [Example 26], the minimal inhibitory concentration (MIC) is below 0.125 µg/mL.

`Cc1cc(/C=C2\OC(=O)C(c3cc(Cl)cc(Cl)c3)=C2O)ccc1-c1ccccc1C(F)(F)F` [Example 27] gave a minimal inhibitory concentration (MIC) of 0.5 µg/mL (≈ 1.02 µM).

The next experiment deals with E. coli Enopyruvyl-UPD-N-acetylglucosamine reductase, Mur B (Escherichia coli, UniProt P08373). As to the kind of experiment: biochemical. The following applies: (E) E. coli enzyme.
Chain of E. coli Enopyruvyl-UPD-N-acetylglucosamine reductase, Mur B (P08373 whole entry): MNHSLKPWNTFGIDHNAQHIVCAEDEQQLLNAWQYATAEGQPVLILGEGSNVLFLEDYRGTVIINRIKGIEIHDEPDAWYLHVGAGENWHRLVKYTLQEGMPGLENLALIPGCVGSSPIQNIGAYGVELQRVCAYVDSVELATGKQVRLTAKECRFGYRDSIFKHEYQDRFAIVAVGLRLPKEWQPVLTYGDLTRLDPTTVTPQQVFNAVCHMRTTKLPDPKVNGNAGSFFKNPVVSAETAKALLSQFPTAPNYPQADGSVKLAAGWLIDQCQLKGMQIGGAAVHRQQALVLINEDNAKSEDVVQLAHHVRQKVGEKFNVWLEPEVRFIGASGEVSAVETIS
For `Cc1cc(C=C2OC(=O)C(c3cc(Cl)cc(Cl)c3)=C2O)ccc1-c1ccccc1Cl` [Example 31], the “MurB IC50” value is listed as 2 (E); 2 (S) μg/mL.

Turning to `Cc1cc(/C=C2\OC(=O)C(c3cc(Cl)cc(Cl)c3)=C2O)ccc1-c1ccccc1OS(C)(=O)=O` [Example 39], the “MurB IC50” value stood at 8 µg/mL.

As for `CCOC(=O)c1cccc(C2=C(O)C(=Cc3cccc4ccccc34)OC2=O)c1` [Example 75], the “MurB IC50” value was above 25 µg/mL.

Turning to `O=C1O/C(=C\c2cccc3ccccc23)C(O)=C1c1cccc(C=NO)c1` [Example 77], the “MurB IC50” value came out at 21 µg/mL.

Turning to `CN(C)c1ccc(C=C2OC(=O)C(c3cc(Cl)cc(Cl)c3)=C2O)c2ccccc12` [Example 80], the “MurB IC50” value amounted to 3 µg/mL.

The same experiment, now with this note: (E) E. coli enzyme; read-out: MurB IC50 (converted).
In general, IC50 refers to the midpoint of a concentration-inhibition curve. Turning to `COc1ccccc1-c1ccc(/C=C2\OC(=O)C(c3ccc(Cl)c(Cl)c3)=C2O)cc1OC` [Example 20], the IC50 was 6.39 µM.

In the case of `COc1cc(/C=C2\OC(=O)C(c3cc(Cl)cc(Cl)c3)=C2O)ccc1-c1ccccc1Cl` [Example 21], the IC50 is 10.6 µM.

Take `COc1cc(/C=C2\OC(=O)C(c3cccc(Cl)c3)=C2O)ccc1-c1ccccc1C` [Example 22]: the IC50 is 14.3 µM.

`COc1ccccc1-c1ccc(/C=C2\OC(=O)C(c3cccc(Cl)c3)=C2O)cc1C` [Example 23]: the IC50 was 9.55 µM.

In the case of `COc1ccccc1-c1ccc(/C=C2\OC(=O)C(c3cc(Cl)cc(Cl)c3)=C2O)cc1C` [Example 24], the IC50 was 8.82 µM.

For `COc1cc(/C=C2\OC(=O)C(c3cc(Cl)cc(Cl)c3)=C2O)ccc1-c1ccccc1C` [Example 25], the IC50 is 4.41 µM.

As to `Cc1cc(/C=C2\OC(=O)C(c3cccc(Cl)c3)=C2O)ccc1-c1ccccc1C(F)(F)F` [Example 26], the 50% inhibitory concentration (IC50) was 6.57 µM.

For the molecule `Cc1cc(/C=C2\OC(=O)C(c3cc(Cl)cc(Cl)c3)=C2O)ccc1-c1ccccc1C(F)(F)F` [Example 27], the IC50 was 6.11 µM.

For another experiment, the target named is T1, S. aureus Enopyruvyl-UPD-N-acetylglucosamine reductase, Mur B (Staphylococcus aureus, UniProt P61431).
T1 sequence (P61431 1-307): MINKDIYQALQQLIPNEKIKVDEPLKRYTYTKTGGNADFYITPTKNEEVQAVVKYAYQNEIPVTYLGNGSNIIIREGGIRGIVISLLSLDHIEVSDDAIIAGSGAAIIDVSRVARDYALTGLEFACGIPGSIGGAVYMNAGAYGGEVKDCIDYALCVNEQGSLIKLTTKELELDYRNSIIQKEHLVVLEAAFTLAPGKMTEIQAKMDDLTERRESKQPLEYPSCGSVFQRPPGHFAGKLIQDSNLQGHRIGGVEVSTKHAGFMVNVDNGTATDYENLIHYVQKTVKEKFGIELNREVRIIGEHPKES
As to the kind of experiment: biochemical. The following applies: (S) S. aureus enzyme.
For the molecule `Cc1cc(C=C2OC(=O)C(c3cc(Cl)cc(Cl)c3)=C2O)ccc1-c1ccccc1Cl` [Example 31], the “MurB IC50” value is given as 2 (E); 2 (S) μg/mL.

For `Cc1cc(/C=C2\OC(=O)C(c3cc(Cl)cc(Cl)c3)=C2O)ccc1-c1ccccc1OS(C)(=O)=O` [Example 39], the “MurB IC50” value worked out at 4 µg/mL.

In the case of `CCOC(=O)c1cccc(C2=C(O)C(=Cc3cccc4ccccc34)OC2=O)c1` [Example 75], the “MurB IC50” value turned out to be 24 µg/mL.

Turning to `O=C1O/C(=C\c2cccc3ccccc23)C(O)=C1c1cccc(C=NO)c1` [Example 77], the “MurB IC50” value was found to be 10 µg/mL.

In the case of `CN(C)c1ccc(C=C2OC(=O)C(c3cc(Cl)cc(Cl)c3)=C2O)c2ccccc12` [Example 80], the “MurB IC50” value turned out to be 1 µg/mL.

Still in this experiment, the particulars now being: (S) S. aureus enzyme; read-out: MurB IC50 (converted).
As for `COc1ccccc1-c1ccc(/C=C2\OC(=O)C(c3ccc(Cl)c(Cl)c3)=C2O)cc1OC` [Example 20], the IC50 was 6.39 µM.

Take `COc1cc(/C=C2\OC(=O)C(c3cc(Cl)cc(Cl)c3)=C2O)ccc1-c1ccccc1Cl` [Example 21]: the IC50 is 6.33 µM.

Take `COc1cc(/C=C2\OC(=O)C(c3cccc(Cl)c3)=C2O)ccc1-c1ccccc1C` [Example 22]: the IC50 was 14.3 µM.

On to `COc1ccccc1-c1ccc(/C=C2\OC(=O)C(c3cccc(Cl)c3)=C2O)cc1C` [Example 23], for which the IC50 was 11.9 µM.

Turning to `COc1ccccc1-c1ccc(/C=C2\OC(=O)C(c3cc(Cl)cc(Cl)c3)=C2O)cc1C` [Example 24], the IC50 is 4.41 µM.

Take `COc1cc(/C=C2\OC(=O)C(c3cc(Cl)cc(Cl)c3)=C2O)ccc1-c1ccccc1C` [Example 25]: the IC50 was 4.41 µM.

For the molecule `Cc1cc(/C=C2\OC(=O)C(c3cccc(Cl)c3)=C2O)ccc1-c1ccccc1C(F)(F)F` [Example 26], the IC50 is 4.38 µM.

Regarding `Cc1cc(/C=C2\OC(=O)C(c3cc(Cl)cc(Cl)c3)=C2O)ccc1-c1ccccc1C(F)(F)F` [Example 27], the IC50 was 4.07 µM.

The target in another experiment is T2, S. aureus Uridine-diphosphate-N-acetvimuramoyl: L-alanine lipase, MurC (Staphylococcus aureus, UniProt Q2FXJ0).
T2 sequence (Q2FXJ0 1-437): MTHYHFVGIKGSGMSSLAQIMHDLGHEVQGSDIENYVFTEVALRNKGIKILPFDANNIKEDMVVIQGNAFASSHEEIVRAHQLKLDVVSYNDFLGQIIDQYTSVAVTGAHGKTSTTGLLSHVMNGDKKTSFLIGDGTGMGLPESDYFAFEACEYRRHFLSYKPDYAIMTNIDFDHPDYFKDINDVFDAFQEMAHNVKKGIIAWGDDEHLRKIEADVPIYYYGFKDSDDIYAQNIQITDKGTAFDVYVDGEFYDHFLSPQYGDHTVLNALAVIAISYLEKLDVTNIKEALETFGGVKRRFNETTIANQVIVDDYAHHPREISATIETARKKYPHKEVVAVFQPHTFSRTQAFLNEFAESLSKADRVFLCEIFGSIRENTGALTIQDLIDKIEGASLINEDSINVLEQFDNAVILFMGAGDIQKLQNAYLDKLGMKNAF
As to the kind of experiment: biochemical. The following applies: (S) S. aureus enzyme. The method, then:
S. aureus and E. coli Uridine-diphosphate-N-acetvimuramoyl: L-alanine lipase, MurC
Preparation of Enzyme Solution:
A 1 mg/mL stock solution of MurC is prepared in a buffer consisting of 20 mM Tris/HCl (pH 8.5) with 2.5 μM BME. The stock solution is further diluted with the buffer to give a final enzyme concentration of 100 μg/mL for the E. coli stock solution and 70 μg/mL for the S. aureus stock solution.
Preparation of Test Compound Solutions:
All test solutions are prepared in DMSO as 10 mg/mL, then diluted with 50 mM Tris/HCl (pH 8.5) to 100 μg/mL.
Preparation of Stop Solution:
The stop solution is prepared by stirring 1 part 4.2% ammonium molydbate in 4N HCl with 2 parts 0.045% malachite green for 30 min.
In this evaluation, the inhibitory activity of a test compound against MurC, the enzyme which catalyzes the third step of bacterial cell wall bioxynthesis is determined. Experiments are performed by adding 2.5 μl buffer, 2.5 μl 0.5M NH4SO2, 5 μl 2 μM L-Ala, 5 μl enzyme solution and 6.5 μl test compound solution to each well in a 96-well microplate. After a pre-incubation period of 10 mins. at 23° C., 3.75 μl of a 0.75 μM solution of UDP-MurNac is added to each well. Following an incubation period of 10 mins. at 37° C., 210 μl stop solution and 50 μl of a 34% w/v sodium citrate solution are added and color is allowed to develop for 10 mins. at 23° C. (Lanzetta et al., Analytical Biochemistry, 1979, 95) Optical density readings are taken at 660 nm using a Molecular Devices Spectra Max 250 with Soft Max software. Controls are performed using the same procedure and omitting the addition of UDP-MurNac. […]
Using these values the IC50 is determined by linear regression analysis.
In the case of `Cc1cc(C=C2OC(=O)C(c3cc(Cl)cc(Cl)c3)=C2O)ccc1-c1ccccc1Cl` [Example 31], the “MurC IC50” value is given as >25 (S) μg/mL.

In the case of `Cc1cc(/C=C2\OC(=O)C(c3cc(Cl)cc(Cl)c3)=C2O)ccc1-c1ccccc1OS(C)(=O)=O` [Example 39], the “MurC IC50” value is recorded as 8 (S) μg/mL.

Regarding `CCOC(=O)c1cccc(C2=C(O)C(=Cc3cccc4ccccc34)OC2=O)c1` [Example 75], the “MurC IC50” value was determined as 20 µg/mL.

On to `O=C1O/C(=C\c2cccc3ccccc23)C(O)=C1c1cccc(C=NO)c1` [Example 77], for which the “MurC IC50” value amounted to 15 µg/mL.

On to `CN(C)c1ccc(C=C2OC(=O)C(c3cc(Cl)cc(Cl)c3)=C2O)c2ccccc12` [Example 80], for which the “MurC IC50” value is given as 18 (S) μg/mL.

Still in this experiment, the particulars now being: (S) S. aureus enzyme; read-out: MurC IC50 (converted).
Regarding `COc1ccccc1-c1ccc(/C=C2\OC(=O)C(c3ccc(Cl)c(Cl)c3)=C2O)cc1OC` [Example 20], the IC50 was 32 µM.

For `COc1cc(/C=C2\OC(=O)C(c3cc(Cl)cc(Cl)c3)=C2O)ccc1-c1ccccc1Cl` [Example 21], the IC50 is 42.2 µM.

For `COc1cc(/C=C2\OC(=O)C(c3cccc(Cl)c3)=C2O)ccc1-c1ccccc1C` [Example 22], the IC50 was 28.6 µM.

Turning to `COc1ccccc1-c1ccc(/C=C2\OC(=O)C(c3cccc(Cl)c3)=C2O)cc1C` [Example 23], the IC50 was 28.6 µM.

Regarding `COc1ccccc1-c1ccc(/C=C2\OC(=O)C(c3cc(Cl)cc(Cl)c3)=C2O)cc1C` [Example 24], the IC50 was 26.5 µM.

Take `COc1cc(/C=C2\OC(=O)C(c3cc(Cl)cc(Cl)c3)=C2O)ccc1-c1ccccc1C` [Example 25]: the IC50 was 26.5 µM.

As to `Cc1cc(/C=C2\OC(=O)C(c3cccc(Cl)c3)=C2O)ccc1-c1ccccc1C(F)(F)F` [Example 26], the IC50 is 13.1 µM.

As to `Cc1cc(/C=C2\OC(=O)C(c3cc(Cl)cc(Cl)c3)=C2O)ccc1-c1ccccc1C(F)(F)F` [Example 27], the concentration for half-maximal inhibition (IC50) is above 50.9 µM.
